# Results reported in patent publication US6767890B1, “Peptides having anti-cancer and anti-inflammatory activity” (priority 1998, dated 2004).
# Biological target: Ca++/Calmodulin Dep. PK II
# Assay: Ca++/Calmodulin Dep. PK II enzyme assay
# Format: biochemical, rat
# Conditions: historical value; read-out: ^1IC, (IC50 of reference compound)
# Description: The peptide was further screened in vitro in a variety of enzyme and biochemical assays. Methods employed were adapted from the scientific literature to maximize reliability and reproducibility. The primary literature reference for each assay is listed in Table 11 opposite the results for each assay.
# Results presented in Table 10, “Results,” are the average of duplicate determinations, unless otherwise noted.
# Reference compounds were tested concurrently at 5 concentrations as an integral part of each assay to ensure the validity of the results obtained.
# Enzyme assays were performed under conditions described in Table 8, “Experimental Conditions.”. The commercial suppliers and catalog numbers of substrates employed in this study are given in Table 7, “Material Sources.” The name, commercial source, and catalog numbers of concurrent reference compounds (controls) employed in this study are given in Table 9, “Reference Compound Data.” The reaction catalyzed by each enzyme is listed in Table 8, “Experimental Conditions.”
# Biochemical assay results are presented in Table 10, as the percent inhibition of specific binding or activity, and unless noted are the average of duplicate tubes tested at each concentration.
structure (smiles),measurement,value
"CN1CCN(CCCN2c3ccccc3Sc3ccc(C(F)(F)F)cc32)CC1 [Trifluoperazine, reference compound]",IC50,27 µM
